Reference: US9572862B2, “Methods for promoting lipolysis and oxidation in liver and adipose tissue using catestatin” (The Regents of the University of California, priority 2012, dated 2017)
No end group written: not given here.

Tests used:
[1] = test system: Ob/Ob mice; assay: CST administration to Ob/Ob mice for 16 days; type: in vivo
Description: FIG. 7. Effects of CST administration to DIO and Ob/Ob mice on food intake, body weight, adipose tissue weight, and lipolysis. CST (5 μg/g BW, i.p./day) or saline was administered to DIO and Ob/Ob mice for 16 days. Food intake for DIO mice (A) and Ob/Ob mice (B) was measured every other day. Percent changes in final body weight and WAT mass (as % of body weight) were determined for DIO (C) and Ob/Ob (D) mice. Plasma glycerol (E) and NEFA (F) were quantified for DIO and Ob/Ob mice at the end of CST treatment.
Adult male (7 month old) WT (31.8±1.2 g) and Chga-KO (39.2±1.5 g) mice in the mixed genetic background (129SvJ×C57BL/6) were studied. Both genotypes were generated from the original founder carrying mixed genotype (50% 129SvJ, 50% C57BL/6) and were maintained by sibling mating. Animals were kept in a 12 hr dark/light cycle and fed standard chow ad libitum. Male C57BL/6 mice, 8 week old, were fed 60% high fat diet (D12492: Research Diets, Inc., New Brunswick) for 16 weeks before using for experiments. Male leptin-deficient (C57BL/6J-Ob/Ob) mice from the Jackson Laboratory were maintained on a standard chow diet. The Institutional Animal Care and Utilization Committee approved all procedures. Chga-KO, DIO and Ob/Ob mice were treated daily with saline or CST (5 μg/g BW, i.p.; 12 days for Chga-KO mice and 16 days for DIO and Ob/Ob mice).
Mice were fasted for 12 hr prior to blood draw. Triglycerides (TG) and non-esterified fatty acids (NEFA) were assayed using kits from Wako Diagnostics (Richmond, Va.). Glycerol was assayed using a kit from Sigma (St Louis, Mo.). Media from the explant cultures and mouse serum were analysed for glycerol and NEFA as a measure of lipolysis. ELISA kits were used to determine plasma levels of leptin, adiponectin (Millipore, Billerica, Mass.) and CST (Bachem, Torrance, Calif.). For CST assay, plasma samples and reference standards were passed through mini C18 columns and the flow-through fractions were assayed. The same kits were used for measurements in culture media.

[2] = test system: Chga-KO mice; assay: Incorporation and oxidation of 14C-palmitate in vivo; conditions: for 14C-palmitate incorporation into lipids: CST 12 days
Description: FIG. 3. Effects of CST on lipogenesis from fatty acid and fatty acid oxidation in hepatic and adipose tissues. Incorporation of ^14C-palmitate into lipids in adipose (A) and liver (B) in Chga-KO mice after saline or CST treatment (5 μg/g BW, i.p./day) for 12 days. Partial oxidation to acid soluble metabolites (ASM) in adipose tissue (C) and liver (D). Complete oxidation to ^14CO2 in hepatocytes (HepG2) and adipocytes (3T3-L1) after saline or CST treatment (E).
Mice were injected with saline or CST (5 μg/g BW, i.p.; […]) for 12 days. One hr after the final injection, U-^14C-palmitate (5 μCi, 100 μl of 0.2 mM, i.p.) was injected and mice were sacrificed 3 hr later. Liver and adipose tissues (˜100 mg) were homogenized in 0.8 ml 3.5 N perchloric acid and extracted by vortexing in 3 ml of a mixture of methanol and chloroform (2:1, v/v). To the final homogenate, 1.2 ml of 3.5 N perchloric acid was added. The mixture was vortexed and centrifuged. The lower (chloroform) layer contained all the lipids derived from the incorporation of ^14C-palmitate, whereas the upper acidic layer contained partially oxidized acid-soluble metabolites (ASM) of ^14C-palmitate. The lower layer was further fractionated by thin layer chromatography on silica gel plates using hexane: diethyl ether: acetic acid (79:20:1, v/v/v) mixture as the developing solvent. Lipogenesis from palmitate was determined based on the radioactivity of the free palmitic acid band compared to other lipids (phospholipids, triglycerides, diacylglycerol, etc.) on the TLC plate. Complete oxidation of ^14C-palmitate was measured in cultured cells but not in mice.

[3] = test system: STAT3 and AMPK phosphorylation; assay: Stat3 and AMPK signaling in adipose explants from Ob/Ob mice; type: cell-based; conditions: CST in vivo, leptin 1 μM ex vivo 30 min
Description: FIG. 9. Stat3 and AMPK signaling in the adipose tissue explants from DIO and Ob/Ob mice treated with saline, CST (in vivo) and leptin (ex vivo). Explants from DIO mice (A&B) and Ob/Ob mice (C&D) were incubated with saline or leptin (1 μM) for 30 min, homogenized and immunoblotted for phospho- and total Stat3 (A&C) as well as phospho- and total AMPK signals (B&D). Results are presented as the ratio of signal strength of phospho-over total.
Adipose tissue explants were prepared as described (42). Epididymal fat pads from 12 hr fasted WT, Chga-KO, DIO and Ob/Ob mice with or without CST treatment were collected in Kreb-Ringer-phosphate (KRP) buffer containing 10 mM Hepes and 0.5% BSA. Tissues were minced to 1-2 mm size and treated with 100 nM CST, 1 μM leptin, or saline for 30 min (for signaling analysis) or 3 hr (for lipolysis and β-oxidation assays). Explants were also treated acutely with CST, leptin, a combination, or saline. At the end, incubation media were saved for analysis of glycerol and fatty acid release. Explants were washed prior to homogenization for immunoblotting and analysis of fatty acid oxidation.
Adipose tissue explants after treatments ex vivo and tissues from mice treated in vivo were homogenized in a buffer containing phosphatase and protease inhibitors (20 mM Tris/HCl (pH 7.5), 250 mM sucrose, 2 mM EDTA, 2 mM EGTA, 2 mM Na3VO4, 10 mM NaF, 2 mM Na4P2O7, 1 mM phenylmethylsulfonyl fluoride, 20 μg/ml leupeptin, 10 μg/ml aprotinin, and 1 μM LR-microcystin) as described (38,44). Homogenates were subjected to SDS-PAGE and immunoblotted. Primary antibodies for AMPK and Stat3 were from Cell Signaling Technology (Beverly, Mass.). The chemiluminescence kit was from Pierce (Rockford, Ill.).

[4] = test system: 3T3-L1 adipocytes; assay: cAMP production in 3T3-L1 adipocytes; type: cell-based; conditions: CST 100 nM, ISO 10 μM, 10 min
[5] = Plasma CST level (ELISA) after CST administration; type: in vivo; conditions: WT mice on NCD, CST 5 μg/g BW i.p./day for 12 days
Description: FIG. 1. Plasma parameters of wild-type (WT) and Chga-KO mice treated with saline or CST. (A) Plasma CST from saline or CST (5 μg/g BW, i.p./day) treated WT mice (28 week old) on normal chow (NCD) and high fat diet (60% fat for 16 weeks) as well as from Chga-KO mice (28 week old) on NCD. Body weights (B) and epididymal fat pad size normalized to body weight (C) in 28 week old WT and Chga-KO mice treated with saline or CST for 12 days. Plasma triglyceride (TG) (D), glycerol (E), non-esterified fatty acids (NEFA) (F), and leptin (G) in 28 week old WT and Chga-KO mice after treatment with saline or CST for 12 days. (H) Leptin in adipocyte culture media after treatment with saline or CST.
Adult male (7 month old) WT (31.8±1.2 g) and Chga-KO (39.2±1.5 g) mice in the mixed genetic background (129SvJ×C57BL/6) were studied. Both genotypes were generated from the original founder carrying mixed genotype (50% 129SvJ, 50% C57BL/6) and were maintained by sibling mating. Animals were kept in a 12 hr dark/light cycle and fed standard chow ad libitum. Male C57BL/6 mice, 8 week old, were fed 60% high fat diet (D12492: Research Diets, Inc., New Brunswick) for 16 weeks before using for experiments. […]
Mice were fasted for 12 hr prior to blood draw. […] Media from the explant cultures and mouse serum were analysed for glycerol and NEFA as a measure of lipolysis. […]

SSMKLSFRARAYGFRGPGPQL [CST]
food intake ([1]; CST 5 μg/g BW i.p./day 16 days): started to level off
adipose tissue mass ([1]; CST 16 days): not reflected in any decrease in body weight or adipose tissue mass
body weight ([1]; CST 16 days): not reflected in any decrease in body weight
plasma concentration of NEFA (lipolysis) ([1]; CST 16 days): not affected
plasma concentration of glycerol (lipolysis) ([1]; CST 16 days): not affected
palmitate oxidation into ASMs ([2]; adipose tissue): stimulated
14C-palmitate incorporation into lipids ([2]; adipose tissue): decreased
palmitate oxidation into ASMs ([2]; liver): stimulated
14C-palmitate incorporation into lipids ([2]; liver): enhanced
STAT3 phosphorylation [3]: CST stimulation of STAT3 phosphorylation
cAMP production [4]: not by CST
time plasma CST maintained at this level [5]: at least 4 hr
